# Experimental data: ChEMBL document CHEMBL3751697, “Enantiomeric 3-deaza-1',6'-isoneplanocin and its 3-bromo analogue: Synthesis by the Ullmann reaction and their antiviral properties” (Bioorg Med Chem Lett, 2016)
# Active and inactive are the calls of the source. The calls are words filed in the database; no cut-off is given here.
# Key:
# [1] = test system: Ebolavirus; assay: Antiviral activity against Zaire ebolavirus infected in African monkey Vero cells; format: functional, cell-based; settings: Orthoebolavirus
# [2] = Cytotoxicity against African monkey Vero cells; format: cell-based; settings: chlorocebus sabaeus
# [3] = Selectivity index, ratio of CC50 for African monkey Vero cells to EC50 for Zaire ebolavirus; format: toxicity, cell-based; settings: read-out: Ratio CC50/EC50
# [4] = test system: Human betaherpesvirus 5; assay: Antiviral activity against Human cytomegalovirus; format: functional, organism-based
# [5] = test system: Hepatitis B virus; assay: Antiviral activity against Hepatitis B virus; format: functional, organism-based
# [6] = test system: Measles morbillivirus; assay: Antiviral activity against Measles virus; format: functional, organism-based
# [7] = test system: Norovirus; assay: Antiviral activity against Norovirus; format: functional
# [8] = test system: Rift Valley fever virus; assay: Antiviral activity against Rift Valley fever virus; format: functional, organism-based
# [9] = test system: Tacaribe virus; assay: Antiviral activity against Tacaribe virus; format: functional, organism-based; settings: Mammarenavirus tacaribeense
# [10] = test system: Dengue virus; assay: Antiviral activity against Dengue virus; format: functional, organism-based
# [11] = test system: Yellow fever virus; assay: Antiviral activity against Yellow fever virus; format: functional, organism-based
# [12] = test system: Hepatitis C virus; assay: Antiviral activity against Hepatitis C virus; format: functional, organism-based; settings: Hepacivirus hominis
# [13] = test system: Chikungunya virus; assay: Antiviral activity against Chikungunya virus; format: functional
# [14] = test system: Japanese encephalitis virus; assay: Antiviral activity against Japanese encephalitis virus; format: functional, organism-based
# [15] = test system: Nipah virus; assay: Antiviral activity against Nipah virus; format: functional, organism-based; settings: Henipavirus nipahense
# [16] = test system: Ebolavirus; assay: Antiviral activity against Zaire ebolavirus infected in human HepG2 cells; format: functional, cell-based; settings: Orthoebolavirus
# [17] = Cytotoxicity against human HepG2 cells; format: cell-based
# [18] = test system: Enterovirus C; assay: Antiviral activity against Poliovirus; format: functional, organism-based
# [19] = test system: Punta Toro virus; assay: Antiviral activity against Punta Toro virus; format: functional, organism-based
# [20] = test system: Venezuelan equine encephalitis virus; assay: Antiviral activity against Venezuelan equine encephalitis virus; format: functional, organism-based
# [21] = test system: Vaccinia virus; assay: Antiviral activity against Vaccinia virus; format: functional, organism-based; settings: Orthopoxvirus vaccinia
# [22] = test system: West Nile virus; assay: Antiviral activity against West Nile virus; format: functional, organism-based
# [23] = test system: Lyssavirus rabies; assay: Antiviral activity against Rabies virus; format: functional
# [24] = test system: Monkeypox virus; assay: Antiviral activity against Monkeypox virus; format: functional, organism-based
# [25] = Selectivity index, ratio of CC50 for human HepG2 cells to EC50 for Zaire ebolavirus; format: toxicity, cell-based; settings: read-out: Ratio CC50/EC50
smiles,measurement,setting,value
Nc1ncc(Br)c2c1ncn2C1=C[C@@H](CO)[C@H](O)[C@@H]1O,EC50,[1],3510 nM
same,CC50,[2],> 100000 nM
same,selectivity ratio,[3],> 28.5
same,EC50,[4],< 100 nM
same,EC50,[5],3250 nM
same,EC50,[6],< 290 nM
same,EC50,[7],1300 nM
same,Activity,[8],inactive
same,Activity,[9],inactive
same,Activity,[10],inactive
same,Activity,[11],inactive
same,Activity,[12],inactive
same,Activity,[13],inactive
same,Activity,[14],inactive
same,Activity,[15],inactive
Nc1nccc2c1ncn2C1=C[C@H](CO)[C@@H](O)[C@H]1O,EC50,[16],< 320 nM
same,EC90,[16],74100 nM
same,CC50,[17],> 100000 nM
same,EC50,[4],< 100 nM
same,EC50,[6],< 380 nM
same,Activity,[18],inactive
same,Activity,[19],inactive
same,Activity,[20],inactive
same,Activity,[21],inactive
same,Activity,[22],inactive
same,Activity,[23],inactive
same,Activity,[24],inactive
Nc1ncc(Br)c2c1ncn2[C@@H]1C=C(CO)[C@@H](O)[C@H]1O,EC50,[16],< 320 nM
same,EC90,[16],3020 nM
same,CC50,[17],21100 nM
same,selectivity ratio,[25],> 67
Nc1ncc(Br)c2c1ncn2C1=C[C@H](CO)[C@@H](O)[C@H]1O,EC50,[1],< 100 nM
same,CC50,[2],> 100000 nM
same,selectivity ratio,[3],> 1000
same,EC50,[4],< 100 nM
same,EC50,[6],< 290 nM
same,Activity,[8],inactive
same,Activity,[9],inactive
same,Activity,[10],inactive
same,Activity,[11],inactive
same,Activity,[12],inactive
same,Activity,[13],inactive
same,Activity,[14],inactive
same,Activity,[15],inactive
Nc1nccc2c1ncn2C1=C[C@@H](CO)[C@H](O)[C@@H]1O,EC50,[16],< 320 nM
same,EC90,[16],< 320 nM
same,CC50,[17],> 100000 nM
same,EC50,[4],< 100 nM
same,Activity,[6],inactive
same,Activity,[18],inactive
same,Activity,[19],inactive
same,Activity,[20],inactive
same,Activity,[21],inactive
same,Activity,[22],inactive
same,Activity,[23],inactive
same,Activity,[24],inactive
